Assay results as given in patent publication US9307766B2, “Isoxazoline derivatives as insecticidal compounds” (Syngenta Participations AG, priority 2011, dated 2016).

Assays:
Format in all cases: in vivo
Heliothis virescens = Heliothis virescens (tobacco budworm) egg test on artificial diet; conditions: 96 h, 200 ppm (concentration in well 18 ppm) by pipetting, eggs 0-24 h old on artificial diet, egg mortality, larval mortality, growth regulation after 4 days
Protocol: Heliothis virescens (Tobacco Budworm):
Eggs (0-24 h old) were placed in 24-well microtiter plate on artificial diet and treated with test solutions at an application rate of 200 ppm (concentration in well 18 ppm) by pipetting. After an incubation period of 4 days, samples were checked for egg mortality, larval mortality, and growth regulation.

Plutella xylostella = Plutella xylostella (diamond back moth) artificial diet test; conditions: 144 h, 200 ppm (concentration in well 18 ppm) on artificial diet, L2 larvae, larval mortality and growth regulation after 6 days
Protocol: Plutella xylostella (Diamond Back Moth):
(§1) 24-well microtiter plate (MTP) with artificial diet was treated with test solutions at an application rate of 200 ppm (concentration in well 18 ppm) by pipetting. After drying, the MTP's were infested with L2 larvae (7-12 per well). After an incubation period of 6 days, samples were checked for larval mortality and growth regulation.

Diabrotica balteata = Diabrotica balteata (corn root worm) artificial diet test; conditions: 120 h, 200 ppm (concentration in well 18 ppm) on artificial diet, L2 larvae, larval mortality and growth regulation after 5 days
Protocol: Diabrotica balteata (Corn Root Worm):
as §1, with “A 24-well” for “24-well”, “(6-10” for “(7-12”, “5” for “6”

Thrips tabaci = Thrips tabaci (onion thrips) leaf disc spray test; conditions: foliar, 168 h, 200 ppm sprayed on sunflower leaf discs, thrip population of mixed ages, mortality after 7 days
Protocol: Thrips tabaci (Onion Thrips):
Sunflower leaf discs were placed on agar in a 24-well microtiter plate and sprayed with test solutions at an application rate of 200 ppm. After drying, the leaf discs were infested with a thrip population of mixed ages. After an incubation period of 7 days, samples were checked for mortality.

Tetranychus urticae = Tetranychus urticae (two-spotted spider mite) leaf disc spray test; conditions: foliar, 192 h, 200 ppm sprayed on bean leaf discs, mite populations of mixed ages, egg, larval and adult mortality 8 days later
Source text: Tetranychus urticae (Two-Spotted Spider Mite):
Bean leaf discs on agar in 24-well microtiter plates were sprayed with test solutions at an application rate of 200 ppm. After drying, the leaf discs are infested with mite populations of mixed ages. 8 days later, discs are checked for egg mortality, larval mortality, and adult mortality.

Spodoptera littoralis = Spodoptera littoralis (Egyptian cotton leafworm) leaf disc spray test; conditions: foliar, 72 h, 200 ppm sprayed on cotton leaf discs, L1 larvae, mortality, feeding behavior, growth regulation 3 days after treatment
Source text: Spodoptera littoralis (Egyptian Cotton Leafworm):
Cotton leaf discs were placed on agar in a 24-well microtiter plate and sprayed with test solutions at an application rate of 200 ppm. After drying, the leaf discs were infested with 5 L1 larvae. The samples were checked for mortality, feeding behavior, and growth regulation 3 days after treatment (DAT).

Measured: pest or weed control at 200 ppm

CC1(NC(=O)c2cnc(C3=NOC(c4cc(Cl)cc(Cl)c4)(C(F)(F)F)C3)c3ccccc23)CSC1 (stereo not drawn) [Compound D14, 1-[5-(3,5-dichlorophenyl)-5-(trifluoromethyl)-4H-isoxazol-3-yl]-N-(3-methylthietan-3-yl)isoquinoline-4-carboxamide]
not listed: Spodoptera littoralis
≥ 80%: all other assays above

O=C(NC1CSC1)c1cnc(C2=NOC(c3cc(Cl)cc(Cl)c3)(C(F)(F)F)C2)c2ccccc12 (stereo not drawn) [Compound D15, 1-[5-(3,5-dichlorophenyl)-5-(trifluoromethyl)-4H-isoxazol-3-yl]-N-(thietan-3-yl)isoquinoline-4-carboxamide]
≥ 80%: all assays above

O=C(NC1CSC1)c1ccc(C2=NOC(c3cc(Cl)cc(Cl)c3)(C(F)(F)F)C2Br)c2ccccc12 (stereo not drawn) [Compound D04, 4-[4-bromo-5-(3,5-dichlorophenyl)-5-(trifluoromethyl)-4H-isoxazol-3-yl]-N-(thietan-3-yl)naphthalene-1-carboxamide]
≥ 80%: all assays above

O=C(NC1CS(=O)(=O)C1)c1cnc(C2=NOC(c3cc(Cl)cc(Cl)c3)(C(F)(F)F)C2)c2ccccc12 (stereo not drawn) [Compound D13, 1-[5-(3,5-dichlorophenyl)-5-(trifluoromethyl)-4H-isoxazol-3-yl]-N-(1,1-dioxothietan-3-yl)isoquinoline-4-carboxamide]
≥ 80%: Spodoptera littoralis | Heliothis virescens | Plutella xylostella | Diabrotica balteata

O=C(NC1CS(=O)(=O)C1)c1ccc(C2=NOC(c3cc(Cl)cc(Cl)c3)(C(F)(F)F)C2)c2ncccc12 (stereo not drawn) [Compound D09, 8-[5-(3,5-dichlorophenyl)-5-(trifluoromethyl)-4H-isoxazol-3-yl]-N-(1,1-dioxothietan-3-yl)quinoline-5-carboxamide]
≥ 80%: Spodoptera littoralis | Plutella xylostella

O=C(NC1CSC1)c1ccc(C2=NOC(c3cc(Cl)cc(Cl)c3)(C(F)(F)F)C2)c2cccnc12 (stereo not drawn) [Compound D12, 5-[5-(3,5-dichlorophenyl)-5-(trifluoromethyl)-4H-isoxazol-3-yl]-N-(thietan-3-yl)quinoline-8-carboxamide]
≥ 80%: all assays above

CC1(NC(=O)c2ccc(C3=NOC(c4cc(Cl)cc(Cl)c4)(C(F)(F)F)C3Br)c3ccccc23)CSC1 (stereo not drawn) [Compound D02, 4-[4-bromo-5-(3,5-dichlorophenyl)-5-(trifluoromethyl)-4H-isoxazol-3-yl]-N-(3-methylthietan-3-yl)naphthalene-1-carboxamide]
≥ 80%: all assays above

O=C(CNC(=O)c1ccc(C2=NOC(c3cc(Cl)cc(Cl)c3)(C(F)(F)F)C2)c2ccccc12)NC1CS(=O)(=O)C1 (stereo not drawn) [Compound D05, 4-[5-(3,5-dichlorophenyl)-5-(trifluoromethyl)-4H-isoxazol-3-yl]-N-[2-[(1,1-dioxothietan-3-yl)amino]-2-oxo-ethyl]naphthalene-1-carboxamide]
≥ 80%: all assays above

O=C(NC1C[S+]([O-])C1)c1ccc(C2=NOC(c3cc(Cl)cc(Cl)c3)(C(F)(F)F)C2)c2ncccc12 (stereo not drawn) [Compound D11, 8-[5-(3,5-dichlorophenyl)-5-(trifluoromethyl)-4H-isoxazol-3-yl]-N-(1-oxothietan-3-yl)quinoline-5-carboxamide]
≥ 80%: Spodoptera littoralis | Heliothis virescens | Plutella xylostella

O=C(CNC(=O)c1ccc(C2=NOC(c3cc(Cl)cc(Cl)c3)(C(F)(F)F)C2)c2ccccc12)NC1CSC1 (stereo not drawn) [Compound D08, 4-[5-(3,5-dichlorophenyl)-5-(trifluoromethyl)-4H-isoxazol-3-yl]-N-[2-oxo-2-(thietan-3-ylamino)ethyl]naphthalene-1-carboxamide]
not listed: Heliothis virescens
≥ 80%: all other assays above

O=C(NC1CSC1)c1ccc(C2=NOC(c3cc(Cl)cc(Cl)c3)(C(F)(F)F)C2)c2ncccc12 (stereo not drawn) [Compound D10, 8-[5-(3,5-dichlorophenyl)-5-(trifluoromethyl)-4H-isoxazol-3-yl]-N-(thietan-3-yl)quinoline-5-carboxamide]
≥ 80%: Spodoptera littoralis | Heliothis virescens | Plutella xylostella | Diabrotica balteata

O=C(NC1CS(=O)(=O)C1)c1ccc(C2=NOC(c3cc(Cl)cc(Cl)c3)(C(F)(F)F)C2Br)c2ccccc12 (stereo not drawn) [Compound D01, 4-[4-bromo-5-(3,5-dichlorophenyl)-5-(trifluoromethyl)-4H-isoxazol-3-yl]-N-(1,1-dioxothietan-3-yl)naphthalene-1-carboxamide]
≥ 80%: all assays above

CC1(NC(=O)CNC(=O)c2ccc(C3=NOC(c4cc(Cl)cc(Cl)c4)(C(F)(F)F)C3)c3ccccc23)CSC1 (stereo not drawn) [Compound D06, 4-[5-(3,5-dichlorophenyl)-5-(trifluoromethyl)-4H-isoxazol-3-yl]-N-[2-[(3-methylthietan-3-yl)amino]-2-oxo-ethyl]naphthalene-1-carboxamide]
≥ 80%: all assays above

O=C(CNC(=O)c1ccc(C2=NOC(c3cc(Cl)cc(Cl)c3)(C(F)(F)F)C2)c2ccccc12)NC1C[S+]([O-])C1 (stereo not drawn) [Compound D07, 4-[5-(3,5-dichlorophenyl)-5-(trifluoromethyl)-4H-isoxazol-3-yl]-N-[2-oxo-2-[(1-oxothietan-3-yl)amino]ethyl]naphthalene-1-carboxamide]
≥ 80%: Spodoptera littoralis | Plutella xylostella | Thrips tabaci | Tetranychus urticae

O=C(NC1C[S+]([O-])C1)c1cnc(C2=NOC(c3cc(Cl)cc(Cl)c3)(C(F)(F)F)C2)c2ccccc12 (stereo not drawn) [Compound D16, 1-[5-(3,5-dichlorophenyl)-5-(trifluoromethyl)-4H-isoxazol-3-yl]-N-(1-oxothietan-3-yl)isoquinoline-4-carboxamide]
≥ 80%: all assays above

O=C(NC1C[S+]([O-])C1)c1ccc(C2=NOC(c3cc(Cl)cc(Cl)c3)(C(F)(F)F)C2Br)c2ccccc12 (stereo not drawn) [Compound D03, 4-[4-bromo-5-(3,5-dichlorophenyl)-5-(trifluoromethyl)-4H-isoxazol-3-yl]-N-(1-oxothietan-3-yl)naphthalene-1-carboxamide]
≥ 80%: all assays above
